Experimental data: PubChem BioAssay AID2060627 (Molecular Pharmacology Branch, DTP, NCI, 2025)

Tested on: 156681-154-R-J1-PDC complex spheroid viability
Experiment: Anticancer human tumor 156681-154-R-J1-PDC patient-derived melanoma cell line growth inhibition [CLK]
Settings: for IC50: curve of first compound; for viability, T/C: stronger effect = lower value
How it was run: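 Multi-cell-type spheroids combined patient-derived tumor cells with HUVEC endothelial cells and human mesenchymal stem cells. Paired agents were dosed in half-log steps down from about clinical Cmax, or from 10 microM where Cmax was unknown.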

[1] = second compound 0.0316 µM, first compound 0.0316 µM
[2] = second compound 0.0316 µM, first compound 0.1 µM
[3] = second compound 0.1 µM, first compound 0.0316 µM
[4] = second compound 0.1 µM, first compound 0.1 µM
[5] = second compound 0.316 µM, first compound 0.0316 µM
[6] = second compound 0.316 µM, first compound 0.1 µM
[7] = second compound 1 µM, first compound 0.0316 µM
[8] = second compound 1 µM, first compound 0.1 µM
[9] = second compound 3.16 µM, first compound 0.0316 µM
[10] = second compound 3.16 µM, first compound 0.1 µM
[11] = second compound 10 µM, first compound 0.0316 µM
[12] = second compound 10 µM, first compound 0.1 µM
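Also: spheroids exposed to the agents for seven days.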
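For viability, T/C in this document: 100% = DMSO vehicle control viability.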

Question: For `Nc1ccccc1NC(=O)c1ccc(CNC(=O)OCc2cccnc2)cc1` + CN1CCN(c2cc(C(=O)Nc3cc4cc(-c5cnn(C)c5)ccc4cn3)ccn2)CC1, which IC50 (second compound 0.0316 µM) is on record?
Answer: 563 nM

Question: What about the IC50 (second compound 0.1 µM) of the same compound?
Answer: 505 nM

Question: What about the IC50 (second compound 0.316 µM) of the same compound?
Answer: < 31.6 nM

Question: What about the IC50 (second compound 1 µM) of the same compound?
Answer: < 31.6 nM

Question: And the IC50 (second compound 3.16 µM)?
Answer: < 31.6 nM

Question: What about the IC50 (second compound 10 µM) of the same compound?
Answer: < 31.6 nM

Question: And the viability, T/C [1]?
Answer: 104%

Question: What about the viability, T/C [2] of the same compound?
Answer: 86.9%

Question: And the viability, T/C (second compound 0.0316 µM, first compound 0.316 µM)?
Answer: 69.7%

Question: And the viability, T/C (second compound 0.0316 µM, first compound 1 µM)?
Answer: 33.3%

Question: What about the viability, T/C (second compound 0.0316 µM, first compound 3.16 µM) of the same compound?
Answer: 5.05%

Question: And the viability, T/C (second compound 0.0316 µM, first compound 10 µM)?
Answer: 0.29%

Question: And the viability, T/C [3]?
Answer: 95.2%

Question: And the viability, T/C [4]?
Answer: 89.5%

Question: What about the viability, T/C (second compound 0.1 µM, first compound 0.316 µM) of the same compound?
Answer: 65.2%

Question: What about the viability, T/C (second compound 0.1 µM, first compound 1 µM) of the same compound?
Answer: 27.4%

Question: And the viability, T/C (second compound 0.1 µM, first compound 3.16 µM)?
Answer: 7.52%

Question: What about the viability, T/C (second compound 0.1 µM, first compound 10 µM) of the same compound?
Answer: 1.57%

Question: And the viability, T/C [5]?
Answer: 23.7%

Question: What about the viability, T/C [6] of the same compound?
Answer: 20.4%

Question: And the viability, T/C (second compound 0.316 µM, first compound 0.316 µM)?
Answer: 19.8%

Question: And the viability, T/C (second compound 0.316 µM, first compound 1 µM)?
Answer: 14.6%

Question: What about the viability, T/C (second compound 0.316 µM, first compound 3.16 µM) of the same compound?
Answer: 1.03%

Question: And the viability, T/C (second compound 0.316 µM, first compound 10 µM)?
Answer: 0.71%

Question: And the viability, T/C [7]?
Answer: 0.22%

Question: And the viability, T/C [8]?
Answer: 1.38%

Question: What about the viability, T/C (second compound 1 µM, first compound 0.316 µM) of the same compound?
Answer: 0.48%

Question: What about the viability, T/C (second compound 1 µM, first compound 1 µM) of the same compound?
Answer: 0.97%

Question: What about the viability, T/C (second compound 1 µM, first compound 3.16 µM) of the same compound?
Answer: 2.99%

Question: And the viability, T/C (second compound 1 µM, first compound 10 µM)?
Answer: 1.95%

Question: What about the viability, T/C [9] of the same compound?
Answer: 0.06%

Question: What about the viability, T/C [10] of the same compound?
Answer: 0.81%

Question: What about the viability, T/C (second compound 3.16 µM, first compound 0.316 µM) of the same compound?
Answer: 0.11%

Question: What about the viability, T/C (second compound 3.16 µM, first compound 1 µM) of the same compound?
Answer: 0.92%

Question: What about the viability, T/C (second compound 3.16 µM, first compound 3.16 µM) of the same compound?
Answer: 1.15%

Question: And the viability, T/C (second compound 3.16 µM, first compound 10 µM)?
Answer: 1.84%

Question: And the viability, T/C [11]?
Answer: 0.03%

Question: What about the viability, T/C [12] of the same compound?
Answer: 0.96%

Question: And the viability, T/C (second compound 10 µM, first compound 0.316 µM)?
Answer: 0.58%

Question: And the viability, T/C (second compound 10 µM, first compound 1 µM)?
Answer: 0.15%

Question: And the viability, T/C (second compound 10 µM, first compound 3.16 µM)?
Answer: 3.86%

Question: And the viability, T/C (second compound 10 µM, first compound 10 µM)?
Answer: 2.47%

Question: How did the IC50 (second compound 0.0316 µM) turn out when `Cn1ncnc1[C@H]1c2n[nH]c(=O)c3cc(F)cc(c23)N[C@@H]1c1ccc(F)cc1` + CN1CCN(c2cc(C(=O)Nc3cc4cc(-c5cnn(C)c5)ccc4cn3)ccn2)CC1 was run?
Answer: > 100 nM

Question: What about the IC50 (second compound 0.1 µM) of the same compound?
Answer: > 100 nM

Question: What about the IC50 (second compound 0.316 µM) of the same compound?
Answer: < 0.316 nM

Question: And the IC50 (second compound 1 µM)?
Answer: < 0.316 nM

Question: What about the IC50 (second compound 3.16 µM) of the same compound?
Answer: < 0.316 nM

Question: And the IC50 (second compound 10 µM)?
Answer: < 0.316 nM

Question: What about the viability, T/C (second compound 0.0316 µM, first compound 0.000316 µM) of the same compound?
Answer: 88.8%

Question: What about the viability, T/C (second compound 0.0316 µM, first compound 0.001 µM) of the same compound?
Answer: 91.7%

Question: And the viability, T/C (second compound 0.0316 µM, first compound 0.00316 µM)?
Answer: 90.5%

Question: What about the viability, T/C (second compound 0.0316 µM, first compound 0.01 µM) of the same compound?
Answer: 94.8%

Question: And the viability, T/C [1]?
Answer: 81.8%

Question: And the viability, T/C [2]?
Answer: 68.7%

Question: What about the viability, T/C (second compound 0.1 µM, first compound 0.000316 µM) of the same compound?
Answer: 89%

Question: What about the viability, T/C (second compound 0.1 µM, first compound 0.001 µM) of the same compound?
Answer: 84.5%

Question: And the viability, T/C (second compound 0.1 µM, first compound 0.00316 µM)?
Answer: 75.2%

Question: What about the viability, T/C (second compound 0.1 µM, first compound 0.01 µM) of the same compound?
Answer: 85.7%

Question: What about the viability, T/C [3] of the same compound?
Answer: 66.1%

Question: What about the viability, T/C [4] of the same compound?
Answer: 59.6%

Question: And the viability, T/C (second compound 0.316 µM, first compound 0.000316 µM)?
Answer: 18.9%

Question: And the viability, T/C (second compound 0.316 µM, first compound 0.001 µM)?
Answer: 23.7%

Question: What about the viability, T/C (second compound 0.316 µM, first compound 0.00316 µM) of the same compound?
Answer: 18.3%

Question: What about the viability, T/C (second compound 0.316 µM, first compound 0.01 µM) of the same compound?
Answer: 17.5%

Question: And the viability, T/C [5]?
Answer: 20.4%

Question: What about the viability, T/C [6] of the same compound?
Answer: 18.6%

Question: And the viability, T/C (second compound 1 µM, first compound 0.000316 µM)?
Answer: 0.18%

Question: What about the viability, T/C (second compound 1 µM, first compound 0.001 µM) of the same compound?
Answer: 2.71%

Question: And the viability, T/C (second compound 1 µM, first compound 0.00316 µM)?
Answer: 0.14%

Question: What about the viability, T/C (second compound 1 µM, first compound 0.01 µM) of the same compound?
Answer: 0.17%

Question: What about the viability, T/C [7] of the same compound?
Answer: 2.08%

Question: What about the viability, T/C [8] of the same compound?
Answer: 0.69%

Question: And the viability, T/C (second compound 3.16 µM, first compound 0.000316 µM)?
Answer: 0.14%

Question: And the viability, T/C (second compound 3.16 µM, first compound 0.001 µM)?
Answer: 1.63%

Question: What about the viability, T/C (second compound 3.16 µM, first compound 0.00316 µM) of the same compound?
Answer: 1.37%

Question: And the viability, T/C (second compound 3.16 µM, first compound 0.01 µM)?
Answer: 0.09%

Question: And the viability, T/C [9]?
Answer: 1.93%

Question: What about the viability, T/C [10] of the same compound?
Answer: 0.67%

Question: What about the viability, T/C (second compound 10 µM, first compound 0.000316 µM) of the same compound?
Answer: 0.13%

Question: And the viability, T/C (second compound 10 µM, first compound 0.001 µM)?
Answer: 3.21%

Question: What about the viability, T/C (second compound 10 µM, first compound 0.00316 µM) of the same compound?
Answer: 2.34%

Question: What about the viability, T/C (second compound 10 µM, first compound 0.01 µM) of the same compound?
Answer: 0.36%

Question: And the viability, T/C [11]?
Answer: 4.58%

Question: And the viability, T/C [12]?
Answer: 1.43%
